Test results taken from patent US20070065366A1, “Pharmaceutical formulations comprising a long-acting beta2-agonist for administration by nebulisation” (Chiesi Farmaceutici S.p.A., priority 2005, published 2007).

Legend:
[1] = Stability of CHF 4226 in aqueous solution, pH 4.0 to 5.5, buffers comprising citric acid at different concentrations (HPLC); type: physicochemical; settings: pH interval between 4.0 and 5.0, 40° C., 75% R.H.
Experimental: The chemical stability of CHF 4226 was then investigated in the pH interval comprised from 4.0 to 5.5 adjusted with buffers comprising citric acid at different concentrations.
The different formulations were stored under accelerated conditions (40° C., 75% R.H.) for at least four months.
Various liquid, propellant-free formulations comprising 0.001% w/v CHF 4226 were prepared according the procedure described in the Example 1 except that sodium chloride was not added in order to better appreciate the effect of the buffer concentration on the chemical stability.
The pH was adjusted in the interval comprised between 4.0 and 5.5 with buffers consisting of different relative percentages of the citric acid/sodium citrate couple or the citric acid/dibasic sodium phosphate couple. Each formulation was distributed in 20 ml glass vials.
The stability of the formulations was evaluated under accelerated conditions (40° C., 75% R.H.) for at least four months.
The impurities/degradation products of CHF 4226 were determined by HPLC using the experimental conditions reported in the Example 2.

[2] = First stability study of CHF 4226 solutions, pH 3.0 to 6.0 adjusted with different agents (HPLC); type: physicochemical; settings: for stability (total impurities/degradation products): compared with not stable, higher than 5% after 1 month accelerated
Experimental: Stability studies in different conditions of pH were carried out.
The amount of the main degradation products and the total impurities and degradation products of CHF 4226 were determined by HPLC.
Total impurities and degradation products comprise the starting impurities present in the drug, the main degradation products and other minor degradation products forming during storage.
In a first study, the effect of the pH in a rather broad range comprised between 3.0 and 6.0 adjusted with different kind of agents was investigated.
The different formulations were stored under long term (25° C., 60% R.H.) and accelerated (40° C., 75% R.H.) conditions for three months.

[3] = cited from earlier work

Structure (SMILES): COc1ccc(C[C@@H](C)NC[C@H](O)c2ccc(O)c3[nH]c(=O)ccc23)cc1 [CHF 4226, 8-hydroxy-5-[(1R)-1-hydroxy-2-[[(1R)-2-(4-methoxyphenyl)-1-methylethyl]amino]ethyl]-2(1H)-quinolinone]
- chemical stability [1]: improved
- chemical stability in aqueous solution ([2]; pH 4.5±0.1, citrate buffer about 19 mM, compared with other pH/agents, 25° C./60% R.H. and 40° C./75% R.H., three months): chemically more stable
- stability (total impurities/degradation products) ([2]; phosphoric acid, pH 3.0): analogous behavior
- stability (total impurities/degradation products) ([2]; phosphoric acid/phosphate buffer, pH 6.0): analogous behavior

Structure (SMILES): CCC(NC(C)C)C(O)c1ccc(O)c2[nH]c(=O)ccc12 (stereo not shown) [procaterol]
- stability in solution ([3]; pH 4.0 to 6.0, acetate or acetate/phosphate buffer, protected from air): more stable at more acidic pHs
- effect of ferric ions on the auto-oxidation rate ([3]; presence of ferric ions, except the solution at pH 6.0 (acetate and phosphate buffer)): increased the auto-oxidation rate
- pH at which the lowest degradation rate was obtained ([3]; solutions at pH 4.0, 4.5, 5.0, 5.5 and 6.0): 4.0
